Where two headings read alike, the source gives them in different places.
Columns and labels:
[1] = system: WERI retinoblastoma cells; assay: Cell viability assay (resazurin/Alamar Blue), WERI; assay type: cell-based, human; conditions: single drug, read-out: Standalone IC50
Protocol: (§1) The human retinoblastoma Y79 (ATCC® HTB18™) and WERI (ATCC® HTB169™) cell lines were cultured in RPMI 1640 (ATCC®) medium supplemented with 20% (Y79) or 10% (WERI-RB) fetal bovine serum, 100 U/mL penicillin, and […] streptomycin in a humidified atmosphere of 5% CO2 at 37° C., grown in 75 cm^2 tissue culture flasks. Once confluent, cells were sub cultivated with fresh medium 1:2 to 1:4 ratios after discarding the supernatant and obtaining the gravity-settled aggregates.
(§2) 10 mL of cell suspension were centrifuged at 1000 G for 10 minutes. The supernatant was discarded and the pellet was then resuspended in media to 1.1*10^5 live cells/mL following a viability cell count check. Cells were plated in 96-well plates at 10,000 cells per well. Sample wells were treated with carboplatin, etoposide or vincristine at the concentrations of 1000 uM, 100 uM, 50 uM, 10 uM, 5 uM, 1 uM, 0.5 uM, and 0.1 uM. Untreated and non-cell controls include a 10 uL vehicle, bringing up all wells to 100 uL total volume. Experiments covered 24/48/72 hour incubations at 5% CO2 at 37° C. prior to analyses. Plates ready for analysis were incubated with 10 uL of 10× Alamar Blue Reagent for 1-4 hours (apparent color change) and emission intensity read at 585 nm following a 555 nm excitation.
(§3) Y79 and WERI cells were incubated with Vincristine, Etoposide, or Carboplatin using previously established half-maximal inhibitory concentrations in a fixed-ratio treatment paradigm. Y79 and WERI cells also were incubated with a mixture of Vincristine, Etoposide, or Carboplatin.

[2] = molecular target: T1, TISSEEL fibrin sealant (Homo sapiens, UniProt P02671+P02675+P02679); assay: Scanning electron microscopy branching analysis of drug-embedded fibrin sealant; conditions: fibrin sealant admixed with 1 mM drug, SEM 5,000x, ImageJ skeleton analysis
T1 construct: purchased
T1 sequence (P02671 20-644 isoform P02671-2 limits assumed): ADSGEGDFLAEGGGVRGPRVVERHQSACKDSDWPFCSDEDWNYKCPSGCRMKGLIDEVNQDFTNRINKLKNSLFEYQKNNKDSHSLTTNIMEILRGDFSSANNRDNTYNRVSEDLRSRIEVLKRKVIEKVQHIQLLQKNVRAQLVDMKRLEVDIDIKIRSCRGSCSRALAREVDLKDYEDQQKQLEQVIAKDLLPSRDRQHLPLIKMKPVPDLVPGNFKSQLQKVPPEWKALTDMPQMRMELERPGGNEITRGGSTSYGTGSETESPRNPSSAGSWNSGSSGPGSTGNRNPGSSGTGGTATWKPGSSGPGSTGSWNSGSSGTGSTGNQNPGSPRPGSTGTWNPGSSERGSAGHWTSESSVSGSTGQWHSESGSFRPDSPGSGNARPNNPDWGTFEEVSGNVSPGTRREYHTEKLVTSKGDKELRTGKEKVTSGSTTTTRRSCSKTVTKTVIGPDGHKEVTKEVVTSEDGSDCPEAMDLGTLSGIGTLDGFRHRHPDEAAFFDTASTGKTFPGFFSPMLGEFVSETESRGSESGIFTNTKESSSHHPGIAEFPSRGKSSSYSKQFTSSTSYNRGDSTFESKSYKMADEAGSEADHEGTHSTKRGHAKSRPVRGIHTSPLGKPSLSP
T1 sequence (P02675 45-491 limits assumed): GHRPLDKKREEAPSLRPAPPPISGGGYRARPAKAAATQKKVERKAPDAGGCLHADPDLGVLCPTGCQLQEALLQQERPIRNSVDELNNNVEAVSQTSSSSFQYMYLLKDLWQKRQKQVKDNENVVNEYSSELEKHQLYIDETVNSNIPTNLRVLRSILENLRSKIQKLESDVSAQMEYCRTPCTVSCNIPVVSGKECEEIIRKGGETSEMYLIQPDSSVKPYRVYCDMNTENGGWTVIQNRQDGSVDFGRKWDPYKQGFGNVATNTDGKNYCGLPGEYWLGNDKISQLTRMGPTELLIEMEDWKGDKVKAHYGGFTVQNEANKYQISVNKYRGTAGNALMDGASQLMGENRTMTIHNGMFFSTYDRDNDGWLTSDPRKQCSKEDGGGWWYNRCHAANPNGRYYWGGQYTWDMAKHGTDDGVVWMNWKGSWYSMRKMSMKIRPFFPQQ
T1 sequence (P02679 27-437 isoform P02679-2 limits assumed): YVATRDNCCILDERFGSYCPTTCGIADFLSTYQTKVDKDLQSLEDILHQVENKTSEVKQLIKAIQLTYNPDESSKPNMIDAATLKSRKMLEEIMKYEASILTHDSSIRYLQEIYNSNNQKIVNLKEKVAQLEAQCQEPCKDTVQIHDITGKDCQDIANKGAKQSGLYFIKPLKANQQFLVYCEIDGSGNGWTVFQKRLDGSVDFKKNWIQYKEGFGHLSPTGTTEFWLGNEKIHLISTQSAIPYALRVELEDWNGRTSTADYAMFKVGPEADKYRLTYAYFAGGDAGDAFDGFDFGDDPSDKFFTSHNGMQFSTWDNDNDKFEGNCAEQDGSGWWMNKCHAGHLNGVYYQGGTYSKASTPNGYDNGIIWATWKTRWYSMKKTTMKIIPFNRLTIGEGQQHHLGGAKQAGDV
Protocol: FIGS. 8A to 8D depict fiber analysis of VEC-embedded fibrin sealant. Commercially available fibrin sealant was admixed with 1 mM additions of Vincristine, Etoposide, or Carboplatin. Samples were critically point dried and imaged by scanning electron microscopy at 5,000× magnification at various points around the samples. Images were uploaded into ImageJ for fiber analysis. […] In FIG. 8B, the images were binarized to 8-bit grayscale. In FIG. 8C, the binarized image was skeletonized to produce a representation of the fiber network. The Analyze Skeleton function was used to quantify fiber branches and junctions. […] Images analysed were taken at 5,000× magnificent and compared over a 800×800 pixel area. TISSEEL™ or TISSEEL™ admixed with chemotherapeutic drug (1 mM final concentration) was prepared according to the IFU. In short, 2 mM additions of chemotherapy were transferred via syringe and needle to the thrombin vial (500 IU/mL thrombin) during preparation and placed in a Fibrinotherm to spin and heat the mixtures to 37 degrees celsius. Following complete dissolution of both thrombin and fibrinogen solutions, each solution was pulled up into respective syringes and loaded in the Duploject spray system accompanying the kit. The 1 mL volumes of thrombin and fibrinogen (2 mL total) were sprayed onto collagen casing. Immediately following coagulation (˜30 seconds), the samples were washed 3× in cacodylate buffer for 10 minutes and fixed in 2% glutaraldehyde buffer (Electron Microscopy Sciences). Fixed clots were washed, serially dehydrated with ethanol, and dried with hexamethyldisilizane (Electron Microscopy Sciences). Clots were allowed to air dry overnight thereafter. Clots were then teased apart with forceps and mounted on aluminum sample supports with carbon adhesive tape. Samples were sputter coated with 20 nm iridium metal in a Leica ACE600 and analyzed by scanning electron microscopy (FEI Quanta 650 FEG). Branching analysis was performed using 2D images cross-sectional cuts of fibrin clots. Representative images and sections displaying easily discernible fibrin branching characteristics were selected from each group. Images were processed using ImageJ's skeleton analysis function. In short, images were first binarized to delineate the image further into branch and background sections. Binary images were then placed through the Analyze Skeleton (2D/3D) function with no pruning or selected parameters. The output file included details such as branch lengths, branch numbers, and number of junctions.

[3] = system: Y79 retinoblastoma cells; assay: Cell viability assay (resazurin/Alamar Blue), Y79; assay type: cell-based, human; conditions: single drug, read-out: Standalone IC50
Protocol: as §1, §2, §3

Row | IC50 ([1]; Homo sapiens) | Avg Branch length [2] | Branch/Junction Ratio [2] | Junctions [2] | Max Branch Number [2] | IC50 ([3]; Homo sapiens) | SMILES | IC50 [1] | IC50 [3]
1 | 2900 nM | 22 nm | 55.7 | 136 +/− 2.3 | 7580 +/− 125 | 100 nM | CC[C@]1(O)C[C@H]2CN(CCc3c([nH]c4ccccc34)[C@@](C(=O)OC)(c3cc4c(cc3OC)N(C=O)[C@H]3[C@@](O)(C(=O)OC)[C@H](OC(C)=O)[C@]5(CC)C=CCN6CC[C@]43[C@@H]65)C2)C1 [Vincristine] |  | 
2 | 2700 nM | 21 nm | 66.2 | 125 +/− 2.1 | 8272 +/− 140 | 6000 nM | COc1cc([C@@H]2c3cc4c(cc3[C@@H](O[C@@H]3O[C@@H]5CO[C@@H](C)O[C@H]5[C@H](O)[C@H]3O)[C@H]3COC(=O)[C@H]23)OCO4)cc(OC)c1O [Etoposide] |  | 

Row | SMILES | IC50 ([1]; Homo sapiens) | Avg Branch length [2] | Branch/Junction Ratio [2] | Junctions [2] | Max Branch Number [2] | IC50 ([3]; Homo sapiens) | IC50 [1] | IC50 [3]
3 | N.N.O=C([O-])C1(C(=O)[O-])CCC1.[Pt+2] [Carboplatin] |  | 19 nm | 68.0 | 148 +/− 2.6 | 10065 +/− 142 |  | 1000 nM | 1100 nM

— patent US20220088155A1, “SUBCONJUNCTIVAL CHEMOTHERAPEUTIC DELIVERY BY FIBRIN SEALANT IN THE TREATMENT OF RETINOBLASTOMA” (BAXTER INTERNATIONALINC., priority 2019, published 2022)
